Laboratory results reported in PubChem BioAssay (NCI).
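Following 48 hours of exposure in 96-well plates, responses at five concentrations were used to interpolate endpoints linearly. TGI: total growth inhibition.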

Key:
Experiment in all cases: NCI anticancer screen, dose series, 48 h
T-47D breast = system: T-47D breast
OVCAR-3 ovarian = system: OVCAR-3 ovarian
MOLT-4 leukemia = system: MOLT-4 leukemia
HCT-116 colon = system: HCT-116 colon
A498 renal = system: A498 renal
MDA-MB-435 = system: MDA-MB-435
SW-620 colon = system: SW-620 colon
COLO 205 colon = system: COLO 205 colon
SF-539 CNS = system: SF-539 CNS
SK-MEL-28 melanoma = system: SK-MEL-28 melanoma
HOP-92 NSCLC = system: HOP-92 NSCLC
U251 CNS = system: U251 CNS
NCI-H522 lung = system: NCI-H522 lung
DU-145 prostate = system: DU-145 prostate
EKVX NSCLC = system: EKVX NSCLC
IGROV1 ovarian = system: IGROV1 ovarian
OVCAR-4 ovarian = system: OVCAR-4 ovarian
RXF 393 renal = system: RXF 393 renal
OVCAR-5 ovarian = system: OVCAR-5 ovarian
HOP-62 NSCLC = system: HOP-62 NSCLC

SMILES	TGI (T-47D breast)	TGI (OVCAR-3 ovarian)	TGI (MOLT-4 leukemia)	TGI (HCT-116 colon)	TGI (A498 renal)	TGI (MDA-MB-435)	TGI (SW-620 colon)	TGI (COLO 205 colon)	TGI (SF-539 CNS)	TGI (SK-MEL-28 melanoma)	TGI (HOP-92 NSCLC)	TGI (U251 CNS)	TGI (NCI-H522 lung)	TGI (DU-145 prostate)	TGI (EKVX NSCLC)	TGI (IGROV1 ovarian)	TGI (OVCAR-4 ovarian)	TGI (RXF 393 renal)	TGI (OVCAR-5 ovarian)	TGI (HOP-62 NSCLC)
O=C1CCCCCCCCCCC1CCCCCBr (stereo not given)	73.9 µM	44.7 µM	33.6 µM	45.9 µM	28.2 µM	97.7 µM	> 100 µM	35.8 µM	59.1 µM	84.4 µM	67.6 µM	43.3 µM	44.4 µM	> 100 µM	> 100 µM	56.2 µM	67.2 µM	43.8 µM	67.1 µM	> 100 µM
Cc1cccc2c1C(=O)[C@](C)([C@]1(C)Nc3cccc(C)c3C1=O)N2	87.9 µM	83.3 µM	72.6 µM	> 100 µM	> 100 µM	35.7 µM	> 100 µM	44.6 µM	74.9 µM	> 100 µM	75.7 µM	> 100 µM	80.9 µM	> 100 µM	71.7 µM	> 100 µM	> 100 µM	> 100 µM	58 µM	84.9 µM
CCOC(=O)CCC(NC(=O)c1ccc(Oc2nc3ccccc3nc2-c2ccccc2)cc1)C(=O)OCC (stereo not given)	> 72.1 µM	> 64.8 µM	> 100 µM	> 49.3 µM	> 100 µM	> 100 µM	> 100 µM	> 100 µM	15 µM	> 100 µM	13.4 µM	> 94 µM	40.2 µM	> 100 µM	> 100 µM	> 100 µM	65.6 µM	> 76.2 µM	> 100 µM	45.1 µM
COc1ccc(/C=C2\CN(C)C/C(=C\c3ccc(OC)cc3)C2=O)cc1	> 100 µM	> 100 µM	> 100 µM	> 100 µM	> 100 µM	> 100 µM	> 100 µM	> 100 µM	> 100 µM	> 100 µM	> 100 µM	> 100 µM	> 100 µM	> 100 µM	> 100 µM	> 100 µM	> 100 µM	> 100 µM	> 100 µM	> 100 µM
